Assay results taken from ChEMBL document CHEMBL3745649, “Structure-activity relationship study of anticancer thymidine-quinoxaline conjugates under the low radiance of long wavelength ultraviolet light for photodynamic therapy” (Eur J Med Chem, 2016).
pEC50: −log10 of the molar value. The source made the active and inactive calls. The calls are words filed in the database; no cut-off is given here.

How the values were obtained:
[1] = Cytotoxicity against human Bel7402 cells assessed as viable cells at 50 uM; format: functional; details: Bel-7402, read-out: Activity
[2] = Cytotoxicity against human PANC1 cells assessed as viable cells at 50 uM; format: functional; details: PANC-1, read-out: Activity
[3] = Dark toxicity against human PANC1 cells assessed as cell viability after 53 hrs by CCK8 assay in absence of UVA-1 irradiation; format: cell-based, PANC-1
[4] = Dark toxicity against human Bel7402 cells assessed as cell viability after 53 hrs by CCK8 assay in absence of UVA-1 irradiation; format: cell-based, Bel-7402
[5] = Photocytotoxicity against human Bel7402 cells assessed as cell viability preincubated for 5 hrs followed by UVA-1 irradiation at 0.85 mW/cm'2 for 20 mins measured after 48 hrs by CCK8 assay; format: functional, cell-based; details: Bel-7402, light or radiation study
[6] = Photocytotoxicity against human PANC1 cells assessed as cell viability preincubated for 5 hrs followed by UVA-1 irradiation at 0.85 mW/cm'2 for 20 mins measured after 48 hrs by CCK8 assay; format: functional, cell-based; details: PANC-1, light or radiation study
PANC-1 [7] = assay: Antioxidant activity in human PANC1 cells assessed as reduction of H2O2-induced reactive oxygen stress level at 5 uM after 15 mins by DCFH-DA based fluorescence assay; format: functional, cell-based
C6 = assay: Cytotoxicity against rat C6 cells assessed as cell viability after 72 hrs by MTT assay; format: functional, cell-based; details: C6, 72 h
PANC-1 [8] = assay: Photocytotoxicity against human PANC1 cells assessed as production of reactive oxygen stress at 5 uM preincubated for 5 hrs followed by UVA-1 irradiation at 0.85 mW/cm'2 for 20 mins measured for 10 mins by DCFH-DA based fluorescence microscopic analysis; format: functional, cell-based
MCF7 = assay: Cytotoxicity against human MCF7 cells assessed as cell viability after 72 hrs by MTT assay; format: functional, cell-based; details: MCF7, 72 h
Bel-7402 = assay: Photocytotoxicity against human Bel7402 cells assessed as production of reactive oxygen stress at 5 uM preincubated for 5 hrs followed by UVA-1 irradiation at 0.85 mW/cm'2 for 20 mins measured for 10 mins by DCFH-DA based fluorescence microscopic analysis; format: functional, cell-based
[9] = Cytotoxicity against human Hep3B cells assessed as cell viability after 72 hrs by MTT assay; format: functional, cell-based, Hep 3B2
HepG2 = assay: Cytotoxicity against human HepG2 cells assessed as cell viability after 72 hrs by MTT assay; format: functional, cell-based; details: HepG2, 72 h
H22 = assay: Cytotoxicity against […] cells assessed as cell viability after 72 hrs by MTT assay; format: functional, cell-based; details: Mus musculus, H22, 72 h
[10] = Photocytotoxicity against human Bel7402 cells assessed as cell viability preincubated for 5 hrs with cells followed by UVA-1 irradiation at 3.0 mW/cm'2 for 20 mins measured after 48 hrs by CCK8 assay; format: functional, cell-based; details: Bel-7402, light or radiation study
[11] = Photocytotoxicity against human PANC1 cells assessed as cell viability preincubated for 5 hrs with cells followed by UVA-1 irradiation at 3.0 mW/cm'2 for 20 mins measured after 48 hrs by CCK8 assay; format: functional, cell-based; details: PANC-1, light or radiation study
PANC-1 [12] = assay: Antioxidant activity in human PANC1 cells assessed as reduction of reactive oxygen stress level at 5 uM after 15 mins by DCFH-DA based fluorescence assay in absence of H2O2; format: functional, cell-based

| SMILES | EC50 at 53 h [3] | EC50 at 53 h [4] | pEC50 [5] | pEC50 [6] | also measured |
| --- | --- | --- | --- | --- | --- |
| Nc1ccn([C@@H]2O[C@H](CO)[C@@H](O)C2(F)F)c(=O)n1 [GEMCITABINE] | – | – | – | – | viability at 50 µM [1]: < 20%; viability at 50 µM [2]: < 20% |
| Cc1cn([C@H]2C[C@H](n3cc(CNC(=O)CCCOc4ccc5c(c4)-c4nc6ccccc6nc4[C@@H]4C(C)(C)CCC[C@]54C)nn3)[C@@H](CO)O2)c(=O)[nH]c1=O | 20 µM | > 20 µM | 4.96 | < 5.00 | – |
| [N-]=[N+]=N[C@@H]1O[C@H](CO)[C@H](O)[C@H](O)[C@H]1O | – | – | – | – | Activity (PANC-1 [7]): Active |
| Cc1cn([C@H]2C[C@H](n3cc(CNC(=O)CCCCCOc4ccc5c(c4)-c4nc6cc(F)ccc6nc4[C@@H]4C(C)(C)CCC[C@]54C)nn3)[C@@H](CO)O2)c(=O)[nH]c1=O | 20 µM | 10 µM | 5.40 | 5.15 | – |
| Cc1cn([C@H]2C[C@H](n3cc(CNC(=O)CCCCCOc4ccc5c(c4)-c4nc6ccc(F)cc6nc4[C@@H]4C(C)(C)CCC[C@]54C)nn3)[C@@H](CO)O2)c(=O)[nH]c1=O | ≥ 50 µM | 10 µM | 5.13 | 4.87 | – |
| Cc1cn([C@H]2C[C@H](n3cc(CNC(=O)CCCCCOc4ccc5c(c4)C(=O)C(=O)[C@@H]4C(C)(C)CCC[C@]54C)nn3)[C@@H](CO)O2)c(=O)[nH]c1=O | > 50 µM | > 50 µM | < 4.70 | < 4.70 | – |
| Cc1cn([C@H]2C[C@H](n3cc(CCCC(=O)Nc4cc5ccc6cccc7ccc(c4)c5c67)nn3)[C@@H](CO)O2)c(=O)[nH]c1=O | > 50 µM | > 50 µM | < 4.70 | < 4.70 | – |
| Cc1cn([C@H]2C[C@H](n3cc(CNC(=O)CCCCCOc4ccc5c(c4)-c4nc6ccccc6nc4[C@@H]4C(C)(C)CCC[C@]54C)nn3)[C@@H](CO)O2)c(=O)[nH]c1=O | ≥ 50 µM | 10 µM | 5.38 | 5.01 | pEC50 (C6): 5.22; Activity (PANC-1 [8]): Active; pEC50 (MCF7): 5.22; Activity (Bel-7402): Active; pEC50 [9]: 5.22; pEC50 (HepG2): 5.22; Activity (PANC-1 [7]): Active; pEC50 (H22): 5.22 |
| CCN(CC)CCNC(=O)c1c(C)[nH]c(/C=C2\C(=O)Nc3ccc(F)cc32)c1C [SUNITINIB] | – | – | – | – | pEC50 [10]: 4.96; pEC50 [11]: 4.89 |
| Cc1cn([C@H]2C[C@H](n3cc(CNC(=O)CCCCCCCOc4ccc5c(c4)-c4nc6ccccc6nc4[C@@H]4C(C)(C)CCC[C@]54C)nn3)[C@@H](CO)O2)c(=O)[nH]c1=O | ≥ 50 µM | 10 µM | 5.40 | 5.24 | – |
| Cc1cn([C@H]2C[C@H](n3cc(CNC(=O)COc4ccc5c(c4)-c4nc6ccccc6nc4[C@@H]4C(C)(C)CCC[C@]54C)nn3)[C@@H](CO)O2)c(=O)[nH]c1=O | 20 µM | > 20 µM | 4.90 | < 4.70 | – |
| Cc1cn([C@H]2C[C@H](n3cc(CNC(=O)CCCCCOc4ccc5c(c4)-c4nc6ccccc6nc4[C@H]4C(C)(C)CCC[C@]54C)nn3)[C@@H](CO)O2)c(=O)[nH]c1=O | > 50 µM | > 20 µM | 5.29 | 4.95 | – |
| Cc1cn([C@H]2C[C@H](n3cc(CNC(=O)CCCCCCCOc4ccc5c(c4)-c4nc6ccccc6nc4[C@H]4C(C)(C)CCC[C@]54C)nn3)[C@@H](CO)O2)c(=O)[nH]c1=O | > 50 µM | 10 µM | 5.25 | 5.09 | – |
| CC1(C)CCC[C@]2(C)c3ccc(OCCCCCC(=O)NCc4cn([C@@H]5O[C@H](CO)[C@H](O)[C@H](O)[C@H]5O)nn4)cc3-c3nc4ccccc4nc3[C@H]12 | > 50 µM | > 50 µM | < 4.70 | < 4.70 | Activity (PANC-1 [8]): inactive; Activity (Bel-7402): inactive; Activity (PANC-1 [12]): Active; Activity (PANC-1 [7]): Active |
| Cc1cn([C@H]2C[C@H](n3cc(CNC(=O)CCCCCOc4ccc5c(c4)-c4nc6cc(Br)c(Br)cc6nc4[C@@H]4C(C)(C)CCC[C@]54C)nn3)[C@@H](CO)O2)c(=O)[nH]c1=O | ≥ 50 µM | > 20 µM | 5.68 | 5.24 | – |
